Assays:
Caco-2 cells = assay: Caco2 assay; type: in vitro ADME, human; conditions: 10 μM, 90 min
Description: Caco-2 cells are a human colon epithelial cancer cell line used as a model of human intestinal absorption of drugs and other compounds. The compounds were assessed for their oral suitability in this assay, as compounds with good oral bioavailability likely evade efflux by pumps. The permeability coefficient (Papp) denotes the permeability of the drug through a monolayer of cells. Transport is assessed in both directions (apical to basolateral (A-B) and basolateral to apical (B-A)) across the cell monolayer to enable an efflux ratio to be determined which provides an indicator as to whether a compound undergoes active efflux.
Caco-2 cells were removed from an incubator and the cell monolayer was washed with HBSS buffer before the Transepithelial/transendothelial electrical resistance (TEER) was measured at room temperature. The transport experiment was started by adding 10 μM solution of test compounds in HBSS buffer containing luciferase yellow to the apical side. A sample from the apical chamber was taken at t=0 min. The volumes of the apical and basal sides were 400 μL and 800 μL respectively. The apical and basolateral plates were incubated at 37° C. for 90 min. After 90 min, the apical plate was separated from the basolateral plate and an aliquot from the basolateral side was transferred to an opaque plate for the determination of lucifer yellow concentration at t=90 min. The luciferase yellow concentration of each sample was measured by fluorimetry using excitation and emission wavelengths of 485 nm and 535 nm, respectively. Samples from the donor and receiver chambers were diluted with 0.4% DMSO in HBSS then mixed with ACN and either osalmid or imipramine, which were used as an IS in preparation for analysis by LC-MS/MS. Samples were then assayed for their levels of test compounds using an UPLC-MS/MS-29(API6500+) or an LC-MS/MS-014(API4000) instrument operating in a positive electrospray ionisation mode.

[1] = Dedicated pharmacokinetic study, single oral dose; type: in vivo, C57BL/6 mice; conditions: plasma; for Cmax / Tmax / AUC(0-t): female, C57BL/6, mouse, mice; for Cmax / Tmax: PO 50 mg/kg study; for AUC(0-t): route and dose not given (PO 50 mg/kg study); for bioavailability: mouse, PO dose of 50 mg/kg, female C57BL/6 mice
Description: For dedicated pharmacokinetic analyses of compounds 29, 122 and 131, C57BL/6 mice (19-21 g, 10-12 weeks, female, purchased from Jihui Laboratory Animal Co. LTD) were given free access to food and water throughout the in-life phase of the study. Mice were orally dosed once with 50 mg/kg (10 mL/kg) of either compound 29, 122 and 131 with each compound formulated in 90% saline, 5% Solutol HS15 and 5% DMSO. At designated time points following dosing (t=0.083, 0.25, 0.5, 1, 2, 4, 8 and 24 h), the animals were restrained manually and ˜110 μL of blood/time point was collected into pre-cooled EDTA-K2 tubes via the facial vein. Blood samples were put on wet ice, then centrifuged at 2000 g for 5 min (4° C.) to obtain plasma within 15 min after sample collection. Plasma samples were subsequently stored at approximately −70° C. until analysis. Each sample was assayed for levels of 29, 122 and 131 by LC/MS/MS using a Triple Quadruple (6500+) system operating in a positive electrospray ionisation mode.
The mean plasma concentration-time profiles from dedicated pharmacokinetic analyses of compound 29, 122 and 131 are shown in FIG. 5A-C. Mice were orally dosed once with either 50 mg/kg of (A) compound 29, (B) compound 122 or (C) compound 131.

[2] = Dedicated pharmacokinetic study, single oral dose; type: in vivo, C57BL/6 mice; conditions: mice, route and dose not given; for half-life: C57BL/6, mouse, plasma, intravenous, 0.4 mg/kg
APOE*3-Leiden.CETP mice = assay: In vivo efficacy study: compound 29 monotherapy; conditions: for reduction of total plasma cholesterol levels compared to the vehicle control: over a period of four weeks
Description: Female APOE*3-Leiden.CETP mice (˜10-14 weeks old) were obtained from the SPF breeding stock at TNO-Metabolic Health Research (Leiden).
Mice were housed in macrolon cages (maximum of 6 mice per cage) in clean-conventional animal rooms (relative humidity 50-60%, temperature ˜21° C., light cycle 7 am to […]). Mice were fed a semi-synthetic western type diet with 15% saturated fat and 0.15% (w/w) cholesterol and were provided with heat-sterilized tap water and food ad libitum.
Forty female APOE*3-Leiden.CETP mice were allowed to acclimate to these conditions for a 3 week run-in period prior to the removal of 8 low-responder mice. […] In the final week of the run-in diet, all mice received vehicle solution (5% DMSO, 5% Solutol HS15, 90% saline) twice daily by oral gavage to accustom the animals to the procedure. After matching, mice received vehicle solution only (Group 1) or compound 29 in vehicle solution (Groups 2, 3 and 4) for the remainder of the study by twice daily administration using oral gavage in a volume of 5 mL/kg body weight. On days 0, 3, 7, 14, 21 and 28 of treatment, blood samples were taken after 4 h of fasting, from which EDTA plasma was collected and used for measurement of plasma total cholesterol. Lipoprotein profiles were determined on day 0, 14 and 28 in group pooled plasma samples using an equal volume of plasma per mouse. On day 28, directly after the last blood sampling point, mice were sacrificed via CO2 asphyxiation, fasted. At sacrifice, EDTA-plasma samples were obtained via heart puncture.
EDTA plasma blood samples were obtained after 4 h fasting. Animals were placed under a red light lamp for at least 10 minutes. The tail was fixed and the mice were allowed to move freely during blood collection and were not fixed to avoid additional stress. […]
Total plasma cholesterol and triglyceride levels were determined using a […] from Roche.
Analyses were performed in samples pooled per group. Cholesterol levels were measured using a “Cholesterol CHOD-PAP” kit from Roche.

Row | Compound | bioavailability indicated by the in vitro Caco2 study (Caco-2 cells) | Cmax [1] | Tmax [1] | AUC(0-t) [1] | bioavailability [1] | half-life [2] | plasma PCSK9 levels (APOE*3-Leiden.CETP mice; 30 and 50 mg/kg bid oral, over four weeks) | reduction of total plasma cholesterol levels compared to the vehicle control (APOE*3-Leiden.CETP mice; oral dosing 30 mg/kg) | reduction of total plasma cholesterol levels compared to the vehicle control (APOE*3-Leiden.CETP mice; oral dosing 50 mg/kg) | T1/2 [2]
1 | Cc1ccc(-c2cc(CN3CCC(F)(F)[C@H](N)C3)cc(NC(=O)c3cc(-c4ccccc4)ccn3)c2)cn1 [Compound 122] | good bioavailability | 10800 ng/mL | 4 h | 173000 ng·h/mL | 75% | 11.3 h | – | – | – | –
2 | Cc1cn(-c2cc(CN3CCC[C@H](N)C3)cc(NC(=O)c3cc(-c4ccccc4)ccn3)c2)cn1 [compound 29, (S)—N-(3-((3-aminopiperidin-1-yl)methyl)-5-(4-methyl-1H-imidazol-1-yl)phenyl)-4-phenylpicolinamide] | good bioavailability | 1480 ng/mL | 2 h | 8130 ng·h/mL | 40% | – | increase in plasma PCSK9 levels | more than 30% | > 50% | 6.29 h
3 | Cc1cnc(C(=O)Nc2cc(CN3CCC(F)(F)[C@H](N)C3)cc(-c3ccc(C(F)(F)F)nc3)c2)cc1-c1ccccc1 [compound 131] | good bioavailability | 6740 ng/mL | 1 h | 98500 ng·h/mL | 54% | 19 h | – | – | – | –
